Assay results: PMC11542593, “Vascular endothelial growth factor receptor 2 as a potential host target for the inhibition of enterovirus replication” (Journal of Virology, 2024)

Legend:
CVB1 = experiment: Antiviral activity against CVB1 in BGMK cells (RT-qPCR, TCID50); assay type: cell-based, coxsackievirus B1; details: 10 µM, 0.1 MOI, 24 h
Experimental: (§1) Detection of cellular mRNA expression and viral load was performed as described previously ([24]). In brief, the infected or mock-infected cells were lysed and applied to total RNA extraction by using the MiniBEST Universal RNA Extraction Kit (TaKaRa, Code No.9767). Viral RNA in the supernatant was extracted with the MiniBEST Viral RNA Extraction Kit (TaKaRa, Code No.9766). Reverse transcription was performed using the PrimeScript RT reagent Kit (TaKaRa, Code No.PR037A) with an oligo (dT) primer. The resultant cDNAs were used for qPCR assay with the Light Cycler 480 SYBR Green I Master Mix (Roche) to measure the mRNA expression level of cellular genes or viral load in supernatants. The relative viral gene copy was determined by RT-qPCR, using GAPDH as an internal reference.
(§2) The viral titer in the indicated samples was determined by TCID50 assay as described previously ([25]). Briefly, serially diluted samples from 10^−1 to 10^−8 in DMEM were inoculated to RD cells, BGMK cells, or MRC-5 in 96‐well plates. The cells were then incubated for 2 to 3 days at 37°C. TCID50 was calculated by counting the wells with cytopathic effect in infected cells using the Reed–Muench method.
(§3) The viral gene copy in the cell lysate is normalized with the transcript of GAPDH and presented. Viral titers were also detected by TCID50 assay. […] All experiments were independently repeated thrice.

HRV-A = experiment: Antiviral activity against HRV-A in MRC-5 cells (RT-qPCR, TCID50); assay type: cell-based, human rhinovirus A; details: 10 µM, 0.1 MOI, 24 h
Experimental: as §1, §2, §3

EV-A71 [1] = experiment: Viral load reduction assay in RD cells (RT-qPCR, TCID50, VP1 Western blot); assay type: cell-based, Human enterovirus A71; details: MOI 0.1, 24 h
Experimental: as §1, §2
Western blot analysis was performed as described previously ([26]). In brief, the indicated cell samples were lysed in RIPA buffer supplemented with protease inhibitors (Thermo Fisher Scientific, 78430). The cell lysates were then separated in 10% SDS-PAGE and transferred to a 0.45-µm nitrocellulose membrane. After blocking, the membrane was incubated with an against VP1 antibody (GeneTex, GTX132339), VEGFR1 antibody (Abcam, ab32152), VEGFR2 antibody (Abcam, ab134191), phosphorylated VEGFR2 antibody (Tyr951) (CST 4991), VEGFR3 antibody (Beyotime, AF6918), Akt antibody (CST 4685), phosphorylated Akt antibody (CST 4060), or GAPDH antibody (GeneTex, GTX627408) diluted 1:5,000 in primary antibody dilution buffer overnight at 4°C, followed by corresponding secondary staining. The blots were visualized by western horseradish peroxidase substrate and imaged with Gel Doc XR+.
The results represent cell viability in the EV-A71-infected RD cells or 2D human intestinal organoids treated with DMSO (Negative control), Pirodavir (Positive control), or indicated VEGFR inhibitor (10 µM) relative to those in mock-infected RD cells or 2D human intestinal organoids. […] Significant inhibition of EV-A71 infection was found for both cell lysate (left) and supernatant (right) using RT-qPCR analysis. The results represent the viral load in the cells treated with indicated inhibitors relative to that in DMSO-treated cells. (C) Viral titer was also determined for inhibitor-treated samples in TCID50 assays. […] (D) Representative images of immunofluorescence assay for selected inhibitors using Rabbit anti‐VP1 antibody (green). Nuclei are counterstained with DAPI (blue). Scale bar, 50 µm.
Nuclei are counterstained with DAPI (blue). Scale bar, 50 µm.
Fig. S2. […] The results represent the viral load in the cells treated with indicated concentration of VEGFR inhibitors relative to that in DMSO-treated cells. Viral titer was also determined for samples treated with indicated concentrations of VEGFR inhibitors in TCID50 assays.
Fig. S7. Viral reduction in RD cells with Src inhibitor treatment. […] Significant inhibition of EV-A71 infection was found for both cell lysate (left) and supernatant (middle) using RT-qPCR analysis. The results represent the viral load in the cells treated with Dasatinib relative to that in DMSO-treated cells. Viral titer was also determined for inhibitor-treated samples in TCID50 assays (right). […] (C) VP1 protein levels were measured for samples treated with DMSO or Dasatinib using western blotting.
Fig. S8. Viral reduction in RD cells with Akt inhibitor treatment. […] Significant inhibition of EV-A71 infection was found for both cell lysate (left) and supernatant (middle) using RT-qPCR analysis. […]

EV-A71 [2] = experiment: EV-A71 inactivation (virucidal) assay; design: species or system Human enterovirus A71; details: 10 µM, 2 h at 25°C, TCID50
Experimental: (§4) Fig. S5. […] (A) EV-A71 inactivation assay. […] (B) EV-A71 attachment assay. […] After 2 hpi, the infectious inoculum was removed and cells were washed again. The intracellular viral RNA load was then determined using RT-qPCR analysis. (C) EV-A71 entry assay.

EV-A71 [3] = experiment: EV-A71 replication in multiple cell types (293T, Vero-E6, Huh7, HepG2, HT-29, Caco2); assay type: cell-based, Human enterovirus A71; details: Vero-E6, Huh7, HepG2 (MOI 1), HT-29, Caco2 (MOI 2), 24 hpi
EV-D70 = experiment: Antiviral activity against EV-D70 in RD cells (RT-qPCR, TCID50); assay type: cell-based, enterovirus D70; details: 10 µM, 0.1 MOI, 24 h
Experimental: as §1, §2, §3

EV-A71 [4] = experiment: Virus attachment/entry assay in RD cells; assay type: cell-based, Human enterovirus A71; details: 10 µM, MOI 5
Experimental: After 2 hpi, the infectious inoculum was removed, and cell lysates were collected. The intracellular viral RNA load was then determined using RT-qPCR analysis. […] The cell lysates were then collected to detect the intracellular viral gene copy by RT-qPCR analysis.
as §4

EV-A71 [5] = experiment: Flow cytometry of VP1-positive EV-A71-infected RD cells; assay type: cell-based, Human enterovirus A71; details: 10 μM, MOI 2, 6 and 9 hpi
Experimental: Flow cytometry analysis was performed according to the standard protocol as described previously ([28]). In brief, the infected or mock-infected RD cells were dissociated with 10 mM EDTA and then fixed with 4% paraformaldehyde for 30 min. After permeabilization, the cells were incubated with rabbit anti‐VP1 antibody (GeneTex, GTX132339), followed by labeling with FITC-conjugated goat anti-rabbit IgG (Beyotime, P0176). Flow cytometry analysis was performed using a BD Fortessa flow cytometer (BD Biosciences), and the data were analyzed using FlowJo v.10 (Tree Star, USA).
Fig. S4. […] Then the infected- and mock-infected RD cells were fixed, labeled, and applied to flow cytometry to evaluate the percentage of VP1-positive cells at 0, 3, 6 and 9 hpi. […] Mean and SD of three independent experiments are presented (B and C). *p < 0.05; **p < 0.01.

Cc1ccc(Nc2nccc(N(C)c3ccc4c(C)n(C)nc4c3)n2)cc1S(N)(=O)=O [Pazopanib]
decrease in viral load and viral titer (CVB1): over 2 logs
HRV-A replication (viral loads in cell lysate and supernatant) (HRV-A): slight but significant inhibition
EV-A71 structural protein VP1 expression, dose dependence (Western blot) (EV-A71 [1]; indicated concentrations): dose-dependent inhibition
EV-A71 viral load and viral titer, dose dependence (EV-A71 [1]; indicated noncytotoxic concentrations): markedly reduced
virucidal effect (EV-A71 virus titers vs DMSO) (EV-A71 [2]): no virucidal effect
EV-A71 replication in cell culture supernatants of multiple cell types (EV-A71 [3]): significantly reduced
decrease in viral load and viral titer (EV-D70): over 2 logs
effect on viral attachment/entry (EV-A71 mRNA levels in cell lysates) (EV-A71 [4]): did not affect the viral attachment/entry stage
percentage of EV-A71-infected RD cells (EV-A71 [5]): markedly decreased
